Laboratory results taken from article PMC4452589, “An evaluation of the brain distribution of [^11C]GSK1034702, a muscarinic-1 (M1) positive allosteric modulator in the living human brain using positron emission tomography” (EJNMMI Research, 2014).
Where two headings read alike, the source gives them in different places. Blank lines part the entries; values can stand above or below the compound they belong to.

What was measured:
[1] = [11C]GSK1034702 PET brain distribution and kinetics in anaesthetised baboons; assay type: in vivo, Papio anubis; settings: for Kp: baboon (Papio anubis), intravenous
Method: The brain distribution of carbon-11-labelled GSK1034702 ([^11C]GSK1034702) was conducted in two anaesthetised baboons (P. anubis), to assess its transport across the BBB. These studies were conducted at Columbia University Medical Center, New York. The study was approved by the Columbia University Institutional Animal Care and Use Committee (IACUC).
Two adult baboons were studied over a 6-week period. Subject A (an ovariectomised female) received two injections of [^11C]GSK1034702 22 days apart, while subject B (male) received a single injection of [^11C]GSK1034702. Each experimental session included a single dynamic PET scan.
Fasted animals were immobilised with intramuscular ketamine injection (10 mg/kg), and anesthetised with 1.8% isoflurane via an endotracheal tube. Vital signs were monitored every 10 min and the temperature was kept constant at 37°C with heated water blankets. An intravenous (IV) perfusion line was used for hydration and injection of the radiotracer. A catheter was inserted in a femoral artery for arterial blood sampling. The head was positioned at the centre of the field of view. PET imaging was performed with the ECAT EXACT HR + PET scanner (Siemens/CTI, Knoxville, TN) operating in 3D mode (in-plane resolution of 4.3, 4.5, 5.4 and 8.0 mm, full width at half maximum (FWHM) at a distance of 0, 1, 10 and 20 cm from the centre of the field of view). A 15-min transmission scan was obtained prior to radiotracer injection for attenuation correction. […] Following IV administration (45-s bolus) of a single dose of [^11C]GSK1034702 dynamic PET, arterial blood and metabolite data were acquired for 120 min (subject A) for the first two scans and only 60 min for the third scan due to a technical issue (subject B).
Regions of interest (ROIs) were drawn on previously acquired T1-weighted anatomical magnetic resonance imaging (MRI) brain images for each animal. The following regions were defined: cerebellum, hippocampus, thalamus, striatum, frontal cortex and occipital cortex. Regions were drawn in the MEDx (Sensor Systems Inc., Sterling, VA, USA) software environment. PET emission data were attenuation-corrected using the transmission scan, and frames were reconstructed using a Shepp filter (cutoff 0.5 cycles/projection rays). Decay-corrected PET images were registered to the MRI images by maximisation of mutual information using SPM2 and Matlab software. Regional boundaries were transferred from the MRI to the individual registered PET frames, and time-activity curves were measured in the MEDx environment. Right and left regions were averaged. For a given animal, the same regions were used for all scans.
Brain time activity curves (TACs) were corrected for the contribution of blood activity assuming a 5% blood volume. A metabolite-corrected arterial input function and regional TACs were fitted to a compartmental model to derive regional VT estimates as well as a whole brain VT.

[2] = plasma free fraction by ultrafiltration, baboon arterial plasma; assay type: in vitro ADME; settings: baboon (Papio anubis), mean ± SD, read-out: free fraction in plasma (fP)
Method: For all non-human primate studies, the non-protein-bound fraction of [^11C]GSK1034702 in arterial plasma (fP) was quantified using the following methodology: triplicate 200 μL aliquots of plasma collected before injection were mixed with [^11C]GSK1034702, pipetted into ultrafiltration units (Centrifree; Amicon, Danvers, MA, USA) and centrifuged at room temperature (20 min at 4,000 rpm). At the end of centrifugation, plasma and ultrafiltrate activities were counted and fP was calculated as the ratio of ultrafiltrate to total activity concentrations.

[3] = plasma free fraction by ultrafiltration, human arterial plasma; assay type: in vitro ADME
Method: (§1) Arterial blood radioactivity was measured continuously for the first 15 min after [^11C]GSK1034702 injection, using a continuous sampling system (ABSS Allogg, Mariefred, Sweden). In addition, 12 serial discrete blood samples were obtained (at 5, 10, 15, 20, 25, 30, 40, 50, 60, 70, 80 and 90 min post injection), to determine whole blood and plasma activity. Seven samples (at 5, 10, 20, 30, 50, 70 and 90 min) were further processed by HPLC to measure the fraction of plasma activity representing unmetabolised GSK1034702. For all human studies, the non-protein-bound fraction of [^11C]GSK1034702 in arterial plasma (fP) was assessed by ultrafiltration for the blood sample taken at the beginning of the scan.

[4] = plasma protein binding by equilibrium dialysis, mouse; assay type: in vitro ADME; settings: equilibrium dialysis 5 h
Method: (§2) The in vitro brain and plasma protein binding of GSK1034702 across a range of species was determined using equilibrium dialysis as described previously.

[5] = plasma protein binding by equilibrium dialysis, rat; assay type: in vitro ADME; settings: equilibrium dialysis 5 h
Method: as §2

[6] = brain tissue binding by equilibrium dialysis, dog; assay type: in vitro ADME; settings: equilibrium dialysis 5 h
Method: as §2

[7] = test system: P-glycoprotein (PGP); design: method as in GlaxoSmithKline (GSK) data on file; settings: MDCK cell line expressing human MDR1; ratio printed as x:1; ref GlaxoSmithKline (GSK) data on file; cited from earlier work
[8] = design: method as in GlaxoSmithKline (GSK) data on file; settings: mouse; ref GlaxoSmithKline (GSK) data on file; cited from earlier work
[9] = design: method as in GlaxoSmithKline (GSK) data on file; settings: marmoset; ratio printed as x:1; ref GlaxoSmithKline (GSK) data on file; cited from earlier work
[10] = parent fraction in arterial plasma by HPLC during PET scan; assay type: in vivo; settings: human, baseline and post-dose sessions, 90 min
Method: as §1

[11] = both sexes, whole brain, Papio anubis, mean ± SD of three scans, two-tissue compartmental model, read-out: whole brain VT

- Kp ([1]; both sexes, cortex, primate, as worded, read-out: VT measured in the primate cortex): 4
- Kp [1, 11]: 3.97
- fraction unbound at 20 min [2]: 0.54
- f P Baseline ([3]; Average of four subjects): 0.45
- f P Post-dose ([3]; Average, after 5 mg oral): 0.44
- f P Baseline ([3]; Subject 1): 0.42
- f P Baseline ([3]; Subject 2): 0.43
- f P Post-dose ([3]; Subject 2, after 5 mg oral): 0.41
- f P Baseline ([3]; Subject 3): 0.43
- f P Post-dose ([3]; Subject 3, after 5 mg oral): 0.43
- f P Baseline ([3]; Subject 4): 0.51
- f P Post-dose ([3]; Subject 4, after 5 mg oral): 0.48
- fraction unbound at 5 h, 1 μg/mL ([4]; mean ± SD, n = 6, read-out: Plasma protein binding (converted)): 0.518
- fraction unbound at 5 h, 1 μg/mL ([4]; read-out: f P (plasma-free fraction)): 0.52
- fraction unbound at 5 h, 1 μg/mL ([5]; Rat (CD), read-out: f P (plasma-free fraction)): 0.53
- fraction unbound at 5 h, 1 μg/mL ([5]; Rat (CD, Sprague Dawley), mean ± SD, n = 6, read-out: Plasma protein binding (converted)): 0.528
- fraction unbound at 5 h, 1 μg/mL ([5]; Rat (LH), read-out: f P (plasma-free fraction)): 0.55
- fraction unbound at 5 h, 1 μg/mL ([5]; Rat (LH, Lister hooded), mean ± SD, n = 6, read-out: Plasma protein binding (converted)): 0.545
- fraction unbound at 5 h, 1 μg/mL ([6]; brain tissue, read-out: f ND (brain-free fraction)): 0.18
- Brain tissue binding ([6]; 1 μg/mL, mean ± SD, n = 6): 81.8 (±1.8) %
SMILES: Cc1cc(F)c2[nH]c(=O)n(C3CCN(C4CCOCC4)CC3)c2c1 [GSK1034702]
- efflux ratio [7]: 2.6
- brain/blood ratio [8]: 0.4
- brain/blood ratio [9]: 2.0

- Regional K1 ([1]; Cerebellum, Subject A Exam 1, baboon): 0.46 mL.cm^-3.min^-1
- Regional K1 ([1]; Cerebellum, Subject A Exam 2, baboon): 0.57 mL.cm^-3.min^-1
- Regional K1 ([1]; Cerebellum, Subject B Exam 1, baboon): 0.35 mL.cm^-3.min^-1
- Regional K1 ([1]; Frontal Ctx, Subject A Exam 1, baboon): 0.39 mL.cm^-3.min^-1
- Regional K1 ([1]; Frontal Ctx, Subject A Exam 2, baboon): 0.53 mL.cm^-3.min^-1
- Regional K1 ([1]; Frontal Ctx, Subject B Exam 1, baboon): 0.32 mL.cm^-3.min^-1
- Regional K1 ([1]; Hippocampus, Subject A Exam 1, baboon): 0.39 mL.cm^-3.min^-1
- Regional K1 ([1]; Hippocampus, Subject A Exam 2, baboon): 0.60 mL.cm^-3.min^-1
- Regional K1 ([1]; Hippocampus, Subject B Exam 1, baboon): 0.32 mL.cm^-3.min^-1
- Regional K1 ([1]; Occipital Ctx, Subject A Exam 1, baboon): 0.67 mL.cm^-3.min^-1
- Regional K1 ([1]; Occipital Ctx, Subject A Exam 2, baboon): 0.53 mL.cm^-3.min^-1
- Regional K1 ([1]; Occipital Ctx, Subject B Exam 1, baboon): 0.37 mL.cm^-3.min^-1
- whole brain VT ([1]; Papio anubis, mean ± SD of three scans, two-tissue compartmental model): 3.97 ± 0.38 mL.cm^−3
- Regional K1 ([1]; Striatum, Subject A Exam 1, baboon): 0.39 mL.cm^-3.min^-1
- Regional K1 ([1]; Striatum, Subject A Exam 2, baboon): 0.51 mL.cm^-3.min^-1
- Regional K1 ([1]; Striatum, Subject B Exam 1, baboon): 0.39 mL.cm^-3.min^-1
- Regional K1 ([1]; Thalamus, Subject A Exam 1, baboon): 0.44 mL.cm^-3.min^-1
- Regional K1 ([1]; Thalamus, Subject A Exam 2, baboon): 0.52 mL.cm^-3.min^-1
- Regional K1 ([1]; Thalamus, Subject B Exam 1, baboon): 0.27 mL.cm^-3.min^-1
- Regional K1 ([1]; Whole Brain, Subject A Exam 1, baboon): 0.45 mL.cm^-3.min^-1
- Regional K1 ([1]; Whole Brain, Subject A Exam 2, baboon): 0.50 mL.cm^-3.min^-1
- Regional K1 ([1]; Whole Brain, Subject B Exam 1, baboon): 0.35 mL.cm^-3.min^-1
- Kp [1, 11]: 3.97
- Kp ([1]; female, cerebellum, Cerebellum, Subject A Exam 1, baboon, read-out: Regional V T): 4.07
- Kp ([1]; female, cerebellum, Cerebellum, Subject A Exam 2, baboon, read-out: Regional V T): 3.79
- Kp ([1]; female, frontal cortex, Frontal Ctx, Subject A Exam 1, baboon, read-out: Regional V T): 3.92
- Kp ([1]; female, frontal cortex, Frontal Ctx, Subject A Exam 2, baboon, read-out: Regional V T): 3.73
- Kp ([1]; female, hippocampus, Hippocampus, Subject A Exam 1, baboon, read-out: Regional V T): 4.78
- Kp ([1]; female, hippocampus, Hippocampus, Subject A Exam 2, baboon, read-out: Regional V T): 4.62
- Kp ([1]; female, occipital cortex, Occipital Ctx, Subject A Exam 1, baboon, read-out: Regional V T): 4.49
- Kp ([1]; female, occipital cortex, Occipital Ctx, Subject A Exam 2, baboon, read-out: Regional V T): 4.64
- Kp ([1]; female, striatum, Striatum, Subject A Exam 1, baboon, read-out: Regional V T): 3.86
- Kp ([1]; female, striatum, Striatum, Subject A Exam 2, baboon, read-out: Regional V T): 3.95
- Kp ([1]; female, thalamus, Thalamus, Subject A Exam 1, baboon, read-out: Regional V T): 4.06
- Kp ([1]; female, thalamus, Thalamus, Subject A Exam 2, baboon, read-out: Regional V T): 3.91
- Kp ([1]; female, whole brain, Whole brain, Subject A Exam 1, baboon, read-out: Regional V T): 4.2
- Kp ([1]; female, whole brain, Whole brain, Subject A Exam 2, baboon, read-out: Regional V T): 4.19
- Kp ([1]; male, cerebellum, Cerebellum, Subject B Exam 1, baboon, read-out: Regional V T): 3.09
- Kp ([1]; male, frontal cortex, Frontal Ctx, Subject B Exam 1, baboon, read-out: Regional V T): 3.52
- Kp ([1]; male, hippocampus, Hippocampus, Subject B Exam 1, baboon, read-out: Regional V T): 3.52
- Kp ([1]; male, occipital cortex, Occipital Ctx, Subject B Exam 1, baboon, read-out: Regional V T): 3.89
- Kp ([1]; male, striatum, Striatum, Subject B Exam 1, baboon, read-out: Regional V T): 3.21
- Kp ([1]; male, thalamus, Thalamus, Subject B Exam 1, baboon, read-out: Regional V T): 2.75
- Kp ([1]; male, whole brain, Whole brain, Subject B Exam 1, baboon, read-out: Regional V T): 3.52
- fraction unbound at 20 min [2]: 0.54 ± 0.21
- metabolism over the time course of the PET scan (parent fraction in plasma) [10]: minimal metabolism
SMILES: [11CH3]c1cc(F)c2[nH]c(=O)n(C3CCN(C4CCOCC4)CC3)c2c1 [[^11C]GSK1034702]
